Results on three compounds are retold here after patent publication US20220218878A1, “CONTROLLED HEAT DELIVERY COMPOSITIONS” (BAMBU VAULT LLC, priority 2019, published 2022).

Data set [1] is described as follows: Surfactant effect on tetrakis aminium dye retention and particle size during emulsification. The format is physicochemical. The following applies: emulsion and evaporation process; emulsifier as labelled. The protocol:
The preparation of the aqueous phase: under the stirring with an IKA Ultra-Turrax® T 25 homogenizer at 8000 RPM, 1.2 g of sodium dodecyl sulfate (SDS) was added into 190 g of 4.9% aqueous polyvinyl alcohol (PVA) solution placed in a round bottom flask. An aqueous solution of SDS containing 4.9% PVA was formed after the dissolution of SDS (the aqueous phase).
The preparation of the organic phase: to 88 g of dichloromethane was added 8.0 g of DSM NeoCryl® B-805 polymer (MMA/BMA copolymer), 1.82 g of Epolight™ 1117 dye, and 0.65 g of Cyanox® 1790 in 88 g to allow the formation of a clear solution of B805 polymer and dyes (the polymer: dye weight ratio=4.4:1).
The organic phase (polymer and dyes dissolved in dichloromethane) was injected directly into the aqueous phase (PVA solution with SDS surfactant) at the tip of the Turrax's roto-stator (i.e. directly into the flow being sheared by the roto-stator). The shear mixing at 8000 RPM was continued for 30 minutes. The resulting mixture was decanted into an open-mouth container and stirred magnetically for 16 hours. A solid suspension of particles containing IR dye was obtained. […]
Particle Size and Distribution for the particle heaters The particle size and size distribution of the NIR dye/MMA/BMA copolymer particles were measured by a Horiba LA-950 Particle Size Analyzer in distilled water with pH 7.4 (FIG. 3). […]

Data set [2] is described as follows: Screening of acrylic polymer carriers and additives for particle performance. The following applies: additive within the particles. The format is physicochemical. The source says:
Various commercially available acrylic polymers were screened for preferred particle performance characteristic such as particle size distribution, IR dye stability and encapsulation efficiency.
The loading of dyes within the particles is as high as possible without degrading the cohesion of the polymer. The additives that stabilize the dye within the particles have been studied.

Consider `CCCCCCCCCCCCCOC(=O)CC(C(=O)OCCCCCCCCCCCCC)S(=O)(=O)O.[Na]` (stereo not drawn) [Aerosol® TR-70, sodium bis(tridecyl) sulfosuccinate], for which the “Epolight™ 1117 retention in the particles” value in data set [1] amounted to 50%.

Consider `CCCCCCCCCCCCOS(=O)(=O)[O-].[Na+]` [Sodium dodecyl sulfate, sodium dodecyl sulfate], for which the “Epolight™ 1117 retention in the particles” value in data set [1] is recorded as 85-90%.

`Cc1cc(C(C)(C)C)c(O)c(C)c1Cn1c(=O)n(Cc2c(C)cc(C(C)(C)C)c(O)c2C)c(=O)n(Cc2c(C)cc(C(C)(C)C)c(O)c2C)c1=O` [Cyanox® 1790, 1,3,5-tris(4-tert-butyl-3-hydroxy-2,6-dimethylbenzyl)-1,3,5-triazine-2,4,6-(1H,3H,5H)-trione]: the “impact on dye stability” value in data set [2] was “positive impact on dye stability”.
